For the test, the system named is STING pathway. As to the kind of experiment: STING reporter assay: luciferase reporter activity in THP1-Dual KO-IFNAR2 cells activated with 2'3'cGAMP. To be noted: Homo sapiens, 2'3'cGAMP 15 μM, 24 h, read-out: hSTING EC50. The test is classed as cell-based. As for the experimental part:
STING pathway activation by the compounds described herein was measured using THP1-Dual™ cells (KO-IFNAR2).
THP1-Dual™ KO-IFNAR2 Cells (obtained from invivogen) were maintained in RPMI, 10% FCS, 5 ml P/S, 2 mM L-glut, 10 mM Hepes, and 1 mM sodium pyruvate. Compounds were spotted in empty 384 well tissue culture plates (Greiner 781182) by Echo for a final concentration of 0.0017-100 μM. Cells were plated into the TC plates at 40 μL per well, 2×10E6 cells/mL. For activation with STING ligand, 2′3′cGAMP (MW 718.38, obtained from Invivogen), was prepared in Optimem media.
The following solutions were prepared for each 1×384 plate: • Solution A: 2 mL Optimem with one of the following stimuli: • 60 μL of 10 mM 2′3′cGAMP→150 μM stock • Solution B: 2 mL Optimem with 60 μL Lipofectamine 2000→Incubate 5 min at RT
2 mL of solution A and 2 ml Solution B was mixed and incubated for 20 min at room temperature (RT). 20 μL of transfection solution (A+B) was added on top of the plated cells, with a final 2′3′cGAMP concentration of 15 μM. The plates were then centrifuged immediately at 340 g for 1 minute, after which they were incubated at 37° C., 5% CO2,>98% humidity for 24 h. Luciferase reporter activity was then measured. EC50 values were calculated by using standard methods known in the art.
Luciferase reporter assay: 10 μL of supernatant from the assay was transferred to white 384-plate with flat bottom and squared wells. One pouch of QUANTI-Luc™ Plus was dissolved in 25 mL of water. 100 μL of QLC Stabilizer per 25 mL of QUANTI-Luc™ Plus solution was added. 50 μL of QUANTI-Luc™ Plus/QLC solution per well was then added. Luminescence was measured on a Platereader (e.g., Spectramax I3X (Molecular Devices GF3637001)).
Luciferase reporter activity was then measured. EC50 values were calculated by using standard methods known in the art.

In the case of `CCOc1cc(F)c(C(=O)Nc2c[nH]c3cc(F)c(F)cc23)c(F)c1` [Compound 199, N-(5,6-difluoro-1H-indol-3-yl)-4-ethoxy-2,6-difluorobenzamide], the EC50 lay in the range of 200 to 1000 nM.
Turning to `COCCNc1cc(C(=O)Nc2c[nH]c3cc(F)c(F)cc23)ccc1C(F)(F)F` [Compound 236, N-(5,6-difluoro-1H-indol-3-yl)-3-((2-methoxyethyl)amino)-4-(trifluoromethyl)benzamide], the EC50 was in the range of 200 to 1000 nM.
With `O=C(Nc1c[nH]c2cc(F)c(F)cc12)c1ccc(OC(F)F)c(OCC2CC2)c1` [Compound 127, 3-(cyclopropylmethoxy)-N-(5,6-difluoro-1H-indol-3-yl)-4-(difluoromethoxy)benzamide], the EC50 was in the range of 200 to 1000 nM.
As to `O=C(Nc1c[nH]c2cc(F)c(F)cc12)c1cnc(N2CC3(CC(OCC(F)(F)F)C3)C2)c(F)c1` [Compound 221, N-(5,6-difluoro-1H-indol-3-yl)-5-fluoro-6-(6-(2,2,2-trifluoroethoxy)-2-azaspiro[3.3]heptan-2-yl)nicotinamide], the EC50 is 40 to 200 nM.
The same measure for `O=C(Nc1c[nH]c2cc(F)c(F)cc12)c1ccc(C2(O)CCC(F)(F)CC2)cc1` [Compound 187, 4-(4,4-difluoro-1-hydroxycyclohexyl)-N-(5,6-difluoro-1H-indol-3-yl)benzamide]: 200 to 1000 nM; for `CC(C)(CO)CCCNc1ncc(C(=O)Nc2c[nH]c3cc(F)c(F)cc23)cc1Cl` [Compound 209, 5-chloro-N-(5,6-difluoro-1H-indol-3-yl)-6-((5-hydroxy-4,4-dimethylpentyl)amino)nicotinamide]: 200 to 1000 nM; for `Cc1c(C(=O)Nc2c[nH]c3cc(F)c(F)cc23)ccnc1N1CC(F)(F)C1` [Compound 253, N-(5,6-difluoro-1H-indol-3-yl)-2-(3,3-difluoroazetidin-1-yl)-3-methylisonicotinamide]: 1000 to 5000 nM.
On to `O=C(Nc1c[nH]c2cc(F)c(F)cc12)c1cccc(OC2CCCCC2)c1` [Compound 179, 3-(cyclohexyloxy)-N-(5,6-difluoro-1H-indol-3-yl)benzamide], for which the EC50 lay within 200 to 1000 nM.
As for `O=C(Nc1c[nH]c2cc(F)c(Cl)cc12)c1ccc(C2(O)CCC(F)(F)CC2)cc1` [Compound 259, N-(5-chloro-6-fluoro-1H-indol-3-yl)-4-(4,4-difluoro-1-hydroxycyclohexyl)benzamide], the half-maximal effective concentration (EC50) lay in the range of 200 to 1000 nM.
For `O=C(Nc1c[nH]c2cc(F)c(F)cc12)c1ccc(CN2CC(F)(F)C2)nc1` [Compound 273, N-(5,6-difluoro-1H-indol-3-yl)-6-((3,3-difluoroazetidin-1-yl)methyl)nicotinamide], the 50% effective concentration (EC50) is 5000 to 100000 nM.
Turning to `COCCC1CCN(c2ncc(C(=O)Nc3c[nH]c4cc(F)c(F)cc34)cc2Cl)CC1` [Compound 163, 5-chloro-N-(5,6-difluoro-1H-indol-3-yl)-6-(4-(2-methoxyethyl)piperidin-1-yl)nicotinamide], the 50% effective concentration (EC50) lay in the range of 40 to 200 nM.
Take `O=C(Nc1c[nH]c2cc(F)c(F)cc12)c1ccnc(Oc2ccccc2)c1` [Compound 263, N-(5,6-difluoro-1H-indol-3-yl)-2-phenoxypyridine-4-carboxamide]: the EC50 is 200 to 1000 nM.
In the case of `Cc1cc(C(=O)Nc2c[nH]c3cc(F)c(F)cc23)cc(N2CCC(F)(F)CC2)n1` [Compound 175, N-(5,6-difluoro-1H-indol-3-yl)-2-(4,4-difluoropiperidin-1-yl)-6-methylisonicotinamide] it was 5000 to 100000 nM; in that of `O=C(Nc1c[nH]c2cc(F)c(F)cc12)c1cnc(N2CCC(OC(F)(F)F)CC2)cn1` [Compound 182, N-(5,6-difluoro-1H-indol-3-yl)-5-(4-(trifluoromethoxy)piperidin-1-yl)pyrazine-2-carboxamide], 40 to 200 nM.
For the compound `O=C(Nc1c[nH]c2cc(F)c(F)cc12)c1ccc(OCCCC(F)(F)F)c(Cl)c1` [Compound 151, 3-chloro-N-(5,6-difluoro-1H-indol-3-yl)-4-(4,4,4-trifluorobutoxy)benzamide], the EC50 is 200 to 1000 nM.
The same measure for `Cc1cc(OC(F)(F)F)cc(C(=O)Nc2c[nH]c3cc(F)c(F)cc23)c1` [Compound 119, N-(5,6-difluoro-1H-indol-3-yl)-3-methyl-5-(trifluoromethoxy)benzamide]: 200 to 1000 nM; for `CC1(c2ncc(C(=O)Nc3c[nH]c4cc(F)c(F)cc34)cc2F)CCC(F)(F)CC1` [Compound 220, 6-(4,4-difluoro-1-methylcyclohexyl)-N-(5,6-difluoro-1H-indol-3-yl)-5-fluoronicotinamide]: 40 to 200 nM.
Consider `O=C(Nc1c[nH]c2cc(F)c(F)cc12)c1ccc(Oc2ccc(C(F)(F)F)cn2)cc1` [Compound 133, N-(5,6-difluoro-1H-indol-3-yl)-4-{[5-(trifluoromethyl)pyridin-2-yl]oxy}benzamide], for which the EC50 is 200 to 1000 nM.
As to `O=C(Nc1c[nH]c2cc(F)c(F)cc12)c1ccnc(C(O)C(F)(F)F)c1` (stereo not drawn) [Compound 235, N-(5,6-difluoro-1H-indol-3-yl)-2-(2,2,2-trifluoro-1-hydroxyethyl)isonicotinamide], the EC50 is 5000 to 100000 nM.
With `Cc1nc(C(=O)Nc2c[nH]c3cc(F)c(F)cc23)cnc1OCC(F)(F)F` [Compound 173, N-(5,6-difluoro-1H-indol-3-yl)-6-methyl-5-(2,2,2-trifluoroethoxy)pyrazine-2-carboxamide], the EC50 is 1000 to 5000 nM.
In the case of `O=C(Nc1c[nH]c2cc(F)c(F)cc12)c1ccc(C2CC(F)(F)C2)nc1` [Compound 216, N-(5,6-difluoro-1H-indol-3-yl)-6-(3,3-difluorocyclobutyl)nicotinamide], the EC50 was in the range of 200 to 1000 nM.
On to `O=C(Nc1c[nH]c2cc(F)c(F)cc12)c1ccnc(NCCCC(F)(F)F)c1` [Compound 203, N-(5,6-difluoro-1H-indol-3-yl)-2-((4,4,4-trifluorobutyl)amino)isonicotinamide], for which the EC50 lay in the range of 200 to 1000 nM.
On to `COc1cc(C(=O)Nc2c[nH]c3cc(F)c(F)cc23)ccc1C(F)(F)F` [Compound 112, N-(5,6-difluoro-1H-indol-3-yl)-3-methoxy-4-(trifluoromethyl)benzamide], for which the EC50 was in the range of 200 to 1000 nM.
The same measure for `O=C(Nc1c[nH]c2cc(F)c(F)cc12)c1cnc(N2CC(F)(F)C2)c(Cl)c1` [Compound 137, 5-chloro-N-(5,6-difluoro-1H-indol-3-yl)-6-(3,3-difluoroazetidin-1-yl)nicotinamide]: 200 to 1000 nM; for `O=C(Nc1c[nH]c2cc(F)c(F)cc12)c1ccc(OCCCC(F)(F)F)c(F)c1` [Compound 142, N-(5,6-difluoro-1H-indol-3-yl)-3-fluoro-4-(4,4,4-trifluorobutoxy)benzamide]: 200 to 1000 nM; for `O=C(Nc1c[nH]c2cc(F)c(F)cc12)c1cnc(N2CCC3(CC2)CC3(F)F)c(F)c1` [Compound 219, N-(5,6-difluoro-1H-indol-3-yl)-6-(1,1-difluoro-6-azaspiro[2.5]octan-6-yl)-5-fluoronicotinamide]: 40 to 200 nM.
With `O=C(Nc1c[nH]c2cc(F)c(F)cc12)c1ccc(OCCC(F)(F)F)cc1` [Compound 141, N-(5,6-difluoro-1H-indol-3-yl)-4-(3,3,3-trifluoropropoxy)benzamide], the EC50 fell in the range of 200 to 1000 nM.
In the case of `Cc1cc(C(=O)Nc2c[nH]c3cc(F)c(F)cc23)ccc1OCCCC(F)(F)F` [Compound 155, N-(5,6-difluoro-1H-indol-3-yl)-3-methyl-4-(4,4,4-trifluorobutoxy)benzamide], the concentration for a half-maximal effect (EC50) fell in the range of 40 to 200 nM.
For the compound `CC1(c2ccc(C(=O)Nc3c[nH]c4cc(F)c(F)cc34)cn2)CCN(CC(F)(F)F)CC1` [Compound 218, N-(5,6-difluoro-1H-indol-3-yl)-6-(4-methyl-1-(2,2,2-trifluoroethyl)piperidin-4-yl)nicotinamide], the EC50 is 200 to 1000 nM.
In the case of `O=C(Nc1c[nH]c2ccc(Cl)cc12)c1cnc(N2C[C@@H]3[C@@H](COCC(F)(F)F)[C@@H]3C2)c(F)c1` [Compound 224, N-(5-chloro-1H-indol-3-yl)-5-fluoro-6-((1R,5S,6r)-6-((2,2,2-trifluoroethoxy)methyl)-3-azabicyclo[3.1.0]hexan-3-yl)nicotinamide] it was 40 to 200 nM.
For the compound `O=C(Nc1c[nH]c2c(F)cncc12)c1ccc(OCCCC(F)(F)F)c(F)c1` [Compound 111, 3-fluoro-N-(7-fluoro-1H-pyrrolo[3,2-c]pyridin-3-yl)-4-(4,4,4-trifluorobutoxy)benzamide], the EC50 is 1000 to 5000 nM.
In the case of `O=C(Nc1c[nH]c2ccc(Cl)cc12)c1ccc(CC2CCN(CC(F)(F)F)CC2)cc1` [Compound 229, N-(5-chloro-1H-indol-3-yl)-4-((1-(2,2,2-trifluoroethyl)piperidin-4-yl)methyl)benzamide] it was 40 to 200 nM; in that of `O=C(Nc1c[nH]c2cc(F)c(F)cc12)c1ccc(N2CCC(F)(F)CC2)nc1` [Compound 159, N-(5,6-difluoro-1H-indol-3-yl)-6-(4,4-difluoropiperidin-1-yl)nicotinamide], 40 to 200 nM.

The record behind these values is US20230250106A1, “COMPOUNDS AND COMPOSITIONS FOR TREATING CONDITIONS ASSOCIATED WITH STING ACTIVITY” (IFM Due, Inc., priority 2020, published 2023).
